Data as given in ChEMBL document CHEMBL3779797, “Isoindole-1,3-dione derivatives as RSK2 inhibitors: synthesis, molecular docking simulation and SAR analysis” (Medchemcomm, 2016).

Test system: not listed separately
Experiment: Inhibition of RSK2 in rabbit skeletal muscle using KKRNRTLSVA as substrate after 10 mins in presence of [gamma32P]ATP
Parameters: species or system Oryctolagus cuniculus

First: CN(C)CCCn1cc(C2=C(c3c[nH]c4ccccc34)C(=O)NC2=O)c2ccccc21 [GF-109203]
Second: Cn1cc(C2=C(c3cn(CCCSC(=N)N)c4ccccc34)C(=O)NC2=O)c2ccccc21 [BISINDOLYLMALEIMIDE IX]
The IC50 of the first is 17-fold higher: 0.05 µM for the first, 0.003 µM for the second.

Target: Ribosomal protein S6 kinase alpha-2 (Homo sapiens) (UniProt Q15349)
Sequence (Q15349 whole entry): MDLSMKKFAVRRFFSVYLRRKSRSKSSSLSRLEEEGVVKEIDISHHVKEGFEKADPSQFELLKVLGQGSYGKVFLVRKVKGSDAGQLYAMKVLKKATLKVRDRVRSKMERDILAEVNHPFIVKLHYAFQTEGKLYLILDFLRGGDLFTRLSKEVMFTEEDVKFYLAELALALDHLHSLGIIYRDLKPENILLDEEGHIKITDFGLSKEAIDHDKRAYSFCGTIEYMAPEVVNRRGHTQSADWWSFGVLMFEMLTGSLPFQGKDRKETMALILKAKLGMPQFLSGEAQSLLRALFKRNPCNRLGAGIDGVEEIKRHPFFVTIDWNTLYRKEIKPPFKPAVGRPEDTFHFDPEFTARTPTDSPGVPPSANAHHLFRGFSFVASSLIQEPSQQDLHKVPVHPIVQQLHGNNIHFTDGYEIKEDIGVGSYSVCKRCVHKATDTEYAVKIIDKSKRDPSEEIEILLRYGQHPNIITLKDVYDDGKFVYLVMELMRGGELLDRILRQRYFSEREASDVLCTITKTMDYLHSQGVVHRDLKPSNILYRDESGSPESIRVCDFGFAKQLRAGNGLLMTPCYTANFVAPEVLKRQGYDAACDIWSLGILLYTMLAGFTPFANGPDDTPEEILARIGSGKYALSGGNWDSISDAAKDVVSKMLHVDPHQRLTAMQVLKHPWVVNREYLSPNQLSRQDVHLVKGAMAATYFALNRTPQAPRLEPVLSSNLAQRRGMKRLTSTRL
Experiment: Inhibition of N-terminal His6 tagged full-length human recombinant active RSK2 at 10 uM using S6 peptide after 20 mins by fluorescence assay

First: CCOc1ccc(NCN2C(=O)c3ccc(NC(=O)c4ccccc4)cc3C2=O)cc1
Second: COc1ccc(NCN2C(=O)c3ccc(NC(=O)c4ccccc4)cc3C2=O)cc1
The inhibition of the first is lower: 69.5% for the first, 82% for the second.

Going from `O=C1c2ccccc2C(=O)N1CNc1ccc(F)cc1` to `O=C1c2ccccc2C(=O)N1CNc1ccc(O)cc1`, the inhibition rises from 56.7% to 101%.

First: CCOc1ccc(NCN2C(=O)c3ccccc3C2=O)cc1
Second: COc1ccc(NCN2C(=O)c3ccccc3C2=O)cc1
The inhibition of the first is higher: 100% for the first, 97.2% for the second.

First: O=C(Nc1ccc2c(c1)C(=O)N(CNc1ccc(N3CCOCC3)cc1)C2=O)c1ccccc1
Second: O=C1c2ccccc2C(=O)N1CNc1ccc(N2CCOCC2)cc1
The inhibition of the first is higher: 103% for the first, 101% for the second.

First: CC(C)c1ccc(NCN2C(=O)c3ccccc3C2=O)cc1
Second: Cc1ccc(NCN2C(=O)c3ccccc3C2=O)cc1
The inhibition of the first is lower: 46.5% for the first, 54% for the second.

Compared with `O=C1c2ccccc2C(=O)N1CNc1ccc(OC(F)(F)F)cc1`, `O=C1c2ccccc2C(=O)N1CNc1ccc(Cl)cc1` is lower in inhibition: 28.1% for the first, 8.52% for the second.

Compared with `COc1ccc(N(CN2C(=O)c3ccccc3C2=O)C(C)=O)cc1`, `COc1ccc(N(C)CN2C(=O)c3ccccc3C2=O)cc1` is higher in inhibition: 17.2% for the first, 87% for the second.

Going from `COc1ccc(NCN2C(=O)c3cccc(NC(=O)c4ccccc4)c3C2=O)cc1` to `CCOc1ccc(NCN2C(=O)c3cccc(NC(=O)c4ccccc4)c3C2=O)cc1`, the inhibition rises from 99.5% to 105%.

Going from `CCOc1ccc(NCN2C(=O)c3ccc([N+](=O)[O-])cc3C2=O)cc1` to `Cc1ccc(NCN2C(=O)c3ccc([N+](=O)[O-])cc3C2=O)cc1`, the inhibition falls from 87% to 35.7%.

Compared with `O=C1c2ccccc2C(=O)N1CNc1ccccc1`, `CCc1ccc(NCN2C(=O)c3ccccc3C2=O)cc1` is higher in inhibition: 43.6% for the first, 63% for the second.

Compared with `CCN(CC)c1ccc(NCN2C(=O)c3ccccc3C2=O)c(C)c1`, `COc1ccc(NCN2C(=O)c3ccc(N)cc3C2=O)cc1` is higher in inhibition: 81% for the first, 109% for the second.

Going from `COc1ccc(NCN2C(=O)c3ccc(NC(=O)Nc4ccccc4)cc3C2=O)cc1` to `COc1ccc(NCN2C(=O)c3cccc(N)c3C2=O)cc1`, the inhibition rises from 34.8% to 95.6%.

Work on `Cn1cc(C2=C(c3cn(CCCSC(=N)N)c4ccccc34)C(=O)NC2=O)c2ccccc21` [BISINDOLYLMALEIMIDE IX] yielded an inhibition of 98.2%.
